Tests used:
SAOS-2 [1] = test: Compound was evaluated for the accumulation of cyclic AMP in SaOS-2 (human osteosarcoma) cells.; type: functional, cell-based; details: Homo sapiens, SAOS-2
OK-1 [2] = test: Displacement of [125I]-chick PTHrP-(1-36)-NH2 from opossum (OK-1) kidney cells; type: functional
OK-1 [3] = test: Compound was evaluated for the intrinsic activity for accumulation of cyclic AMP in OK-1 cells.; type: functional, opossum
SAOS-2 [4] = test: Compound was evaluated for the intrinsic activity for accumulation of cyclic AMP in SaOS-2 (human osteosarcoma) cells.; type: functional
UMR106-06 [5] = test: Compound was evaluated for the intrinsic activity for accumulation of cyclic AMP in UMR10606 (rat osteosarcoma) cells.; type: functional
UMR106-06 [6] = test: Compound was evaluated for the accumulation of cyclic AMP in UMR10606 (rat osteosarcoma) cells.; type: functional, cell-based; details: Rattus norvegicus, UMR106-06
OK-1 [7] = test: Compound was evaluated for the accumulation of cyclic AMP in OK-1 cells.; type: functional, cell-based, opossum

EC50 (SAOS-2 [1]): 2.3 nM
EC50 (UMR106-06 [6]): 3.3 nM
EC50 (OK-1 [7]): 4.2 nM
Structure (SMILES): CC[C@H](C)[C@H](NC(=O)[C@H](CCC(=O)O)NC(=O)[C@H](CO)NC(=O)[C@@H](NC(=O)[C@@H](N)CO)C(C)C)C(=O)N[C@@H](CCC(N)=O)C(=O)N[C@@H](CC(C)C)C(=O)N[C@@H](CCSC)C(=O)N[C@@H](Cc1c[nH]cn1)C(=O)N[C@@H](CC(N)=O)C(=O)N[C@@H](CC(C)C)C(=O)NCC(=O)N[C@@H](CCCCN)C(=O)N[C@@H](Cc1c[nH]cn1)C(=O)N[C@@H](CC(C)C)C(=O)N[C@@H](CC(N)=O)C(=O)N[C@@H](CO)C(=O)N[C@@H](CCSC)C(=O)N[C@@H](CCC(=O)O)C(=O)N[C@@H](CCCN=C(N)N)C(=O)N[C@H](C(=O)N[C@@H](CCC(=O)O)C(=O)N[C@@H](Cc1c[nH]c2ccccc12)C(=O)N[C@@H](CC(C)C)C(=O)N[C@@H](CCCN=C(N)N)C(=O)N[C@@H](CCCCN)C(=O)N[C@@H](CCCCN)C(=O)N[C@@H](CC(C)C)C(=O)N[C@@H](CCC(N)=O)C(=O)N[C@@H](CC(=O)O)C(=O)N[C@H](C(=O)N[C@@H](Cc1c[nH]cn1)C(=O)N[C@@H](CC(N)=O)C(=O)N[C@@H](Cc1ccccc1)C(=O)N[C@H](C(=O)N[C@@H](C)C(N)=O)C(C)C)C(C)C)C(C)C
pKD (OK-1 [2]): 8.6
Intrinsic activity (OK-1 [3]): 1
Intrinsic activity (SAOS-2 [4]): 0.96
Intrinsic activity (UMR106-06 [5]): 0.98
